According to the NIST ThermoML archive (doi:10.1016/j.fluid.2009.02.001):
Several values for one entry are separate records, joined by “and”; a condition that tells them apart may be missing. Identical values can stand only once.

Assays:
[1] = for vapor or sublimation pressure: Liquid
[2] = Molar enthalpy of transition or fusion; settings: Crystal; DSC

CC(=O)Nc1ccc(Br)cc1 [N-(4-bromophenyl)acetamide]
vapor or sublimation pressure, [1]
Settings | Isothermal thermogravimetry | Nonisothermal thermogravimetry
444.2 K | – | 0.304 kPa
446.2 K | 0.384 kPa and 0.382 kPa | –
446.3 K | 0.353 kPa | –
446.4 K | – | 0.366 kPa
447.1 K | 0.381 kPa | –
447.7 K | 0.394 kPa | –
448.2 K | 0.422 kPa | –
448.4 K | – | 0.398 kPa
449.4 K | 0.415 kPa | –
449.9 K | 0.443 kPa | –
450.2 K | 0.453 kPa | 0.443 kPa
451.3 K | 0.447 kPa | –
452.1 K | 0.489 kPa | –
452.2 K | 0.496 kPa | –
452.3 K | – | 0.579 kPa
453.4 K | 0.528 kPa | –
453.6 K | 0.494 kPa | –
454.2 K | 0.539 kPa | –
454.4 K | – | 0.621 kPa
455.3 K | 0.54 kPa | –
455.9 K | 0.584 kPa | –
456.3 K | 0.606 kPa | –
456.4 K | – | 0.611 kPa
457.6 K | 0.605 kPa | –
457.8 K | 0.634 kPa | –
458.2 K | 0.65 kPa | –
458.3 K | – | 0.712 kPa
459.3 K | 0.67 kPa | –
459.5 K | 0.693 kPa | –
460.2 K | 0.732 kPa | –
460.3 K | – | 0.793 kPa
461.5 K | 0.724 kPa | –
462 K | 0.777 kPa | –
462.2 K | 0.793 kPa | 0.882 kPa
463.5 K | 0.793 kPa | –
463.6 K | 0.84 kPa | –
464.2 K | 0.862 kPa | –
464.3 K | – | 0.953 kPa
465.2 K | 0.855 kPa | –
465.9 K | 0.911 kPa | –
466.1 K | 0.943 kPa | –
466.2 K | – | 0.998 kPa
467.1 K | 0.927 kPa | –
468.2 K | 1.011 kPa | –
468.3 K | 1.006 kPa | 1.147 kPa
469.2 K | 1.005 kPa | –
470.2 K | 1.098 kPa and 1.075 kPa | –
470.3 K | – | 1.074 kPa
471.1 K | 1.086 kPa | –
472.1 K | 1.208 kPa | –
472.2 K | – | 1.398 kPa
472.4 K | 1.175 kPa | –
473.2 K | 1.17 kPa | –
474.1 K | 1.285 kPa | –
474.3 K | – | 1.482 kPa
475.3 K | 1.239 kPa | –
476.2 K | 1.381 kPa | 1.497 kPa
478.3 K | – | 1.779 kPa
480.2 K | – | 1.749 kPa
482.3 K | – | 1.937 kPa
484.3 K | – | 2.151 kPa
486.2 K | – | 2.296 kPa
488.3 K | – | 2.466 kPa
490.2 K | – | 2.741 kPa
492.2 K | – | 2.83 kPa
494.3 K | – | 3.134 kPa
496.2 K | – | 3.347 kPa
498.3 K | – | 3.604 kPa
500.3 K | – | 3.812 kPa
502.2 K | – | 4.149 kPa
504.3 K | – | 4.419 kPa
506.2 K | – | 4.593 kPa
508.2 K | – | 4.944 kPa
510.2 K | – | 5.307 kPa
512.2 K | – | 5.584 kPa
514.4 K | – | 5.847 kPa
516.2 K | – | 6.243 kPa

Settings | Molar enthalpy of transition or fusion [kcal/mol]
[2] | 6.21

CCOc1ccc(NC(C)=O)cc1 [N-(4-ethoxyphenyl)ethanamide]
[1]
Settings | Normal melting temperature [°C] | vapor or sublimation pressure
418.2 K, Nonisothermal thermogravimetry | – | 0.088 kPa
420.2 K, Nonisothermal thermogravimetry | – | 0.087 kPa
422.2 K, Nonisothermal thermogravimetry | – | 0.102 kPa
424.3 K, Nonisothermal thermogravimetry | – | 0.106 kPa
426.2 K, Nonisothermal thermogravimetry | – | 0.146 kPa
428.2 K, Nonisothermal thermogravimetry | – | 0.146 kPa
430.3 K, Nonisothermal thermogravimetry | – | 0.162 kPa
432.3 K, Nonisothermal thermogravimetry | – | 0.171 kPa
434.3 K, Nonisothermal thermogravimetry | – | 0.199 kPa
438.2 K, Nonisothermal thermogravimetry | – | 0.247 kPa
440.2 K, Nonisothermal thermogravimetry | – | 0.259 kPa
442.2 K, Nonisothermal thermogravimetry | – | 0.309 kPa
444.2 K, Nonisothermal thermogravimetry | – | 0.329 kPa
446.2 K, Nonisothermal thermogravimetry | – | 0.401 kPa
448.2 K, Nonisothermal thermogravimetry | – | 0.396 kPa
450.2 K, Nonisothermal thermogravimetry | – | 0.452 kPa
452.2 K, Nonisothermal thermogravimetry | – | 0.479 kPa
454.2 K, Nonisothermal thermogravimetry | – | 0.538 kPa
456.3 K, Nonisothermal thermogravimetry | – | 0.589 kPa
458.2 K, Nonisothermal thermogravimetry | – | 0.643 kPa
460.2 K, Nonisothermal thermogravimetry | – | 0.707 kPa
460.3 K, Isothermal thermogravimetry | – | 0.821 kPa
461.1 K, Isothermal thermogravimetry | – | 0.829 kPa
461.9 K, Isothermal thermogravimetry | – | 0.815 kPa
462.2 K, Isothermal thermogravimetry | – | 0.899 kPa
462.2 K, Nonisothermal thermogravimetry | – | 0.785 kPa
463.3 K, Isothermal thermogravimetry | – | 0.958 kPa
464.1 K, Isothermal thermogravimetry | – | 0.935 kPa
464.3 K, Isothermal thermogravimetry | – | 0.96 kPa
464.3 K, Nonisothermal thermogravimetry | – | 0.84 kPa
465.5 K, Isothermal thermogravimetry | – | 1.054 kPa
466.2 K, Isothermal thermogravimetry | – | 1.028 kPa and 1.087 kPa
466.3 K, Nonisothermal thermogravimetry | – | 0.936 kPa
467.4 K, Isothermal thermogravimetry | – | 1.116 kPa
468.1 K, Isothermal thermogravimetry | – | 1.149 kPa
468.2 K, Nonisothermal thermogravimetry | – | 1.057 kPa
468.3 K, Isothermal thermogravimetry | – | 1.165 kPa
469.3 K, Isothermal thermogravimetry | – | 1.242 kPa
470 K, Isothermal thermogravimetry | – | 1.259 kPa
470.2 K, Nonisothermal thermogravimetry | – | 1.11 kPa
470.3 K, Isothermal thermogravimetry | – | 1.273 kPa
471 K, Isothermal thermogravimetry | – | 1.26 kPa
471.8 K, Isothermal thermogravimetry | – | 1.327 kPa
472.2 K, Isothermal thermogravimetry | – | 1.381 kPa
472.2 K, Nonisothermal thermogravimetry | – | 1.192 kPa
473.3 K, Isothermal thermogravimetry | – | 1.377 kPa
474 K, Isothermal thermogravimetry | – | 1.484 kPa
474.2 K, Nonisothermal thermogravimetry | – | 1.324 kPa
474.3 K, Isothermal thermogravimetry | – | 1.551 kPa
475.4 K, Isothermal thermogravimetry | – | 1.567 kPa
476.1 K, Isothermal thermogravimetry | – | 1.571 kPa
476.2 K, Isothermal thermogravimetry | – | 1.666 kPa
476.2 K, Nonisothermal thermogravimetry | – | 1.4 kPa
477.6 K, Isothermal thermogravimetry | – | 1.691 kPa
478.3 K, Isothermal thermogravimetry | – | 1.709 kPa and 1.766 kPa
478.3 K, Nonisothermal thermogravimetry | – | 1.559 kPa
479.1 K, Isothermal thermogravimetry | – | 1.789 kPa
479.8 K, Isothermal thermogravimetry | – | 1.808 kPa
480.2 K, Isothermal thermogravimetry | – | 1.915 kPa
480.2 K, Nonisothermal thermogravimetry | – | 1.679 kPa
481.2 K, Isothermal thermogravimetry | – | 2.014 kPa
482 K, Isothermal thermogravimetry | – | 2.037 kPa
482.3 K, Isothermal thermogravimetry | – | 2.099 kPa
482.3 K, Nonisothermal thermogravimetry | – | 1.802 kPa
483.3 K, Isothermal thermogravimetry | – | 2.204 kPa
484.1 K, Isothermal thermogravimetry | – | 2.228 kPa
484.3 K, Isothermal thermogravimetry | – | 2.276 kPa
484.3 K, Nonisothermal thermogravimetry | – | 1.945 kPa
485.3 K, Isothermal thermogravimetry | – | 2.4 kPa
486 K, Isothermal thermogravimetry | – | 2.495 kPa
486.2 K, Isothermal thermogravimetry | – | 2.488 kPa
486.2 K, Nonisothermal thermogravimetry | – | 2.088 kPa
487.1 K, Isothermal thermogravimetry | – | 2.633 kPa
487.8 K, Isothermal thermogravimetry | – | 2.702 kPa
488.2 K, Nonisothermal thermogravimetry | – | 2.229 kPa
488.3 K, Isothermal thermogravimetry | – | 2.686 kPa
489 K, Isothermal thermogravimetry | – | 2.881 kPa
489.8 K, Isothermal thermogravimetry | – | 2.981 kPa
490.2 K, Isothermal thermogravimetry | – | 2.941 kPa
490.3 K, Nonisothermal thermogravimetry | – | 2.41 kPa
491.1 K, Isothermal thermogravimetry | – | 3.159 kPa
492.3 K, Nonisothermal thermogravimetry | – | 2.535 kPa
494.3 K, Nonisothermal thermogravimetry | – | 2.717 kPa
496.2 K, Nonisothermal thermogravimetry | – | 2.889 kPa
498.2 K, Nonisothermal thermogravimetry | – | 3.001 kPa
500.3 K, Nonisothermal thermogravimetry | – | 3.29 kPa
502.3 K, Nonisothermal thermogravimetry | – | 3.213 kPa
Crystal, DTA | 136.5 | –

Settings | Molar enthalpy of transition or fusion [kcal/mol]
[2] | 7.17
